# Measurements as given in publication PMC5431176, “Identification of a High-Affinity Pyruvate Receptor in Escherichia coli” (Scientific Reports, 2017).
# Biological target: T1, BtsS (YehU) (Escherichia coli, UniProt P0AD14)
# T1 construct: full-length BtsS-6His in membrane vesicles
# Assay: DRaCALA with […]-pyruvate on BtsS membrane vesicles, competition with cold pyruvate
# Type: binding
# T1 sequence (P0AD14 whole entry): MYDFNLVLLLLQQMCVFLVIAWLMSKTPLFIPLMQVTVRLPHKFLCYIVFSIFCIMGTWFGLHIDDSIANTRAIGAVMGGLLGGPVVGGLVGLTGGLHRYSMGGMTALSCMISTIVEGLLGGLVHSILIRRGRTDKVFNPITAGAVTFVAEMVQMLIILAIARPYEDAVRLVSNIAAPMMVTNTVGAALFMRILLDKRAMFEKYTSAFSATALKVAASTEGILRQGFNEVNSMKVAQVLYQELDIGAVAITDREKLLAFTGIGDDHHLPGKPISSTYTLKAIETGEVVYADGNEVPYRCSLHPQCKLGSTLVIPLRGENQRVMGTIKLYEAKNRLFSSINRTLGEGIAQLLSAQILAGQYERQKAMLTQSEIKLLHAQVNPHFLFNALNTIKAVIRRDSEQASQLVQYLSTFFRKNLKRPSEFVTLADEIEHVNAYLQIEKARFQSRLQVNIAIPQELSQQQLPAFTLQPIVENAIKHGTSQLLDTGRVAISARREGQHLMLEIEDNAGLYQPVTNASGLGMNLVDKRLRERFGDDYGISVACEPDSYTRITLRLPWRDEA
structure (smiles),measurement,value
CC(=O)C(=O)O [pyruvate],Kd,58.6 ± 8.8 µM
